Source: ChEMBL document CHEMBL3638470, “Substituted 5,6,7,8-tetrahydro-1,6-naphthyridines as factor XIa inhibitors” (2015)
pKi: −log10 of the molar value.

Target: Coagulation factor XI (Homo sapiens, UniProt P03951)
Experiment: Inhibition Assay: The effectiveness of compounds of the present invention as inhibitors of the coagulation factors XIa, Vila, IXa, Xa, Xlla, plasma kallikrein or thrombin, can be determined using a relevant purified serine protease, respectively, and an appropriate synthetic substrate. The rate of hydrolysis of the chromogenic or fluorogenic substrate by the relevant serine protease was measured both in the absence and presence of compounds of the present invention. […] A decrease in the rate of absorbance or fluorescence change in the presence of inhibitor is indicative of enzyme inhibition. Such methods are known to one skilled in the art.

Chain of Coagulation factor XI (P03951 19-387 limits assumed): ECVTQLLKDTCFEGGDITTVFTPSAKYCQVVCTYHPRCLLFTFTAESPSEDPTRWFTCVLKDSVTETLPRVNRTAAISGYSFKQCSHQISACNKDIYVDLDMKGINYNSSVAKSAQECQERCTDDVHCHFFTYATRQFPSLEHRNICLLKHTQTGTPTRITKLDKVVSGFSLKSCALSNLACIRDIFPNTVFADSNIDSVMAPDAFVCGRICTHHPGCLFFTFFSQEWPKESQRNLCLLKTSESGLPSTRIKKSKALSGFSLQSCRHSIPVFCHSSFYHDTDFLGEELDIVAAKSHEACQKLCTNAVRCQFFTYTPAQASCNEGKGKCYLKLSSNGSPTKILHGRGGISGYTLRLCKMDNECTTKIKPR
Chain of Coagulation factor XI (P03951 388-625 limits assumed): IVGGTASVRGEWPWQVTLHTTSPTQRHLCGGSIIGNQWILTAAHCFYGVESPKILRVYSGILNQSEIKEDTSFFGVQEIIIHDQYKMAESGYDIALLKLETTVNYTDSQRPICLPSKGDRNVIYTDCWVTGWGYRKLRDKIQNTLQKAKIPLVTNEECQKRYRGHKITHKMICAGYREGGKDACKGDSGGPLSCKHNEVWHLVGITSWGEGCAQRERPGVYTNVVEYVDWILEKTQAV

How did the pKi turn out when `COC(=O)Nc1cccc(NC(=O)[C@@H]2c3ccccc3CCN2C(=O)/C=C/c2cc(Cl)ccc2-n2cnnn2)c1` was run?
The pKi was 5.55.
